“And” between values parts separate entries of the source, which are not always exact repeats. Equal entries are not always repeated.
Legend:
C2C12 cells = assay: relative gene expression of REV-ERB responsive genes by qPCR; format: cell-based, mouse; conditions: C2C12, 5uM; single replicates; listed as SR1267
From the text: We next determined whether STL1267 can regulate characterized REV-ERB modulated genes in cell lines expressing REV-ERB naturally. Five micromolar doses of both drugs were used in cell-based experiments from this point on. REV-ERB is an established component of the core molecular clock repressing the expression of core clock gene Bmal1[6],[27] as well as others[28],[29]. […] In skeletal muscle, REV-ERB agonism increases the expression of a wide variety of genes important in mitochondrial function.
The human hepatocellular carcinoma cell line, HepG2 cells (ATCC HB-8065), were cultured in 10% FBS 1% L-Glu MEM at 37 °C in a humidified atmosphere of 5% CO2. Prior to RNA extraction cells were treated with either DMSO or REV-ERB agonist for 24 h. The C2C12 proliferating mouse myoblast cells (ATCC, CRL-1772) were cultured in 10% FBS DMEM at 37 °C in a humidified atmosphere of 5% CO2. Prior to RNA extraction cells were treated with either DMSO or REV-ERB agonist for 24 h. Prior to crystal violet cytotoxicity assay, cells were treated with either DMSO or REV-ERB agonist for 48 h.
Mouse tissue was homogenized using a bullet blender. DNA/protein was removed by phase separation using BCP/chloroform. The supernatant (RNA containing fraction) was collected, and RNA was precipitated using isopropanol. The RNA pellets were washed with 75% ethanol and resolubilized in RNAse free water. The purity of the RNA was tested by agarose gel prior to cDNA synthesis. Total RNA was harvested from HepG2 and C2C12 using the RNeasy mini kit according to manufacturer’s instructions (Qiagen).
Isolated RNA was reverse transcribed into cDNA using the qScript^TMcDNA Synthesis kit according to the manufacturer’s instructions (QuantaBio). Quantative PCR (qPCR) was performed on a QuantStudio^TM 6 Flex or QuantStudio^TM 7 Flex (Life Technologies) using SYBR^TM Select Master Mix (Applied BioSystems) with select primers (Table S2). Gene expression was normalized to Ppia for all data sets. Oligonucleotide sequences are provided in Supplementary Table 2.

Alpha2B = molecular target: T1, Alpha2B (Homo sapiens, UniProt P18089); assay: PDSP radioligand binding assay; conditions: read-out: RLBA Ki
T1 construct: NIMH Psychoactive Drug Screening Program (assay performed there)
T1 sequence (P18089 whole entry): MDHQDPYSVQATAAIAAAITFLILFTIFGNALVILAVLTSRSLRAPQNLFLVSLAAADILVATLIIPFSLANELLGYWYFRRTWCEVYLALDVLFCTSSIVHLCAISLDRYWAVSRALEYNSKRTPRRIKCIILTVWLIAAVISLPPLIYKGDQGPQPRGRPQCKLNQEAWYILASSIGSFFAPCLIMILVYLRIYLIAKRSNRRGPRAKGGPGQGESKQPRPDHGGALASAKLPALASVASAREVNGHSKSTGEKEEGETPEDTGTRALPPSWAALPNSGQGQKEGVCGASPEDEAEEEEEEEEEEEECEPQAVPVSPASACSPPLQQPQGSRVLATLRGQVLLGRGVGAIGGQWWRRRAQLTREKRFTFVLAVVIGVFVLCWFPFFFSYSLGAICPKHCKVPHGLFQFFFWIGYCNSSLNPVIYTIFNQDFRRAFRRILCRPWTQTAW
From the text: (§1) Receptor RLBA Ki Receptor activity
(§2) Suppl ementary Tabl e 1. Speci fi ci ty of STL1267. […]

D1 = D1 (Homo sapiens, UniProt P21728); assay: PDSP radioligand binding assay; conditions: read-out: RLBA Ki
Sequence of D1 (P21728 whole entry): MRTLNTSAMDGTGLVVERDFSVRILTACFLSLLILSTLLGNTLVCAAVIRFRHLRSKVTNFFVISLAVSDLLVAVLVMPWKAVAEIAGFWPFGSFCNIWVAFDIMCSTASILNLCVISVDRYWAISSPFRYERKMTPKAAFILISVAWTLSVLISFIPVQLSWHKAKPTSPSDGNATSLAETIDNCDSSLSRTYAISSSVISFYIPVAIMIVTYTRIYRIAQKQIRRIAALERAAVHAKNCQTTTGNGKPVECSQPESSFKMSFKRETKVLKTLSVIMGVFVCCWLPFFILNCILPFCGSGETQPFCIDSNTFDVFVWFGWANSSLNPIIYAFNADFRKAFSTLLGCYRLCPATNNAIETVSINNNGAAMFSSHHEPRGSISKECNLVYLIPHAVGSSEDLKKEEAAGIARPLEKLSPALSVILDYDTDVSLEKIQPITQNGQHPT
From the text: as §1, §2

BZP Rat Brain Site = assay: PDSP radioligand binding assay; conditions: read-out: RLBA Ki
From the text: as §1, §2

M4 = M4 (Homo sapiens, UniProt P08173); assay: PDSP radioligand binding assay; conditions: read-out: RLBA Ki
Sequence of M4 (P08173 whole entry): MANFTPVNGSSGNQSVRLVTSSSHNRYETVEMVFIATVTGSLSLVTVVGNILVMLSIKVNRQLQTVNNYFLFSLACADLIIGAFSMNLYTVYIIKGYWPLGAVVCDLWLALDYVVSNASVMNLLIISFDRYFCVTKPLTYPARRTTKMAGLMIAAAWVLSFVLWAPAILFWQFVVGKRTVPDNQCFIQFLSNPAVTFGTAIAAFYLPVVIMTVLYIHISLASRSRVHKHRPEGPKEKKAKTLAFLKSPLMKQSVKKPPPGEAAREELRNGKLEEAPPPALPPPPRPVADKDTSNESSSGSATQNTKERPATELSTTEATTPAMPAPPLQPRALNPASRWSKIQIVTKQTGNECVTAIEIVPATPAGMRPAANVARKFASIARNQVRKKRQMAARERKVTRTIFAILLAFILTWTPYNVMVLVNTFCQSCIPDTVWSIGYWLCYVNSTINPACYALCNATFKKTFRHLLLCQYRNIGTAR
From the text: as §1, §2

REV-ERBα F488A = molecular target: T2, REV-ERBα F488A (Homo sapiens, UniProt P20393, F488A); assay: two-hybrid reporter assay with mutant receptor; format: cell-based; conditions: F488A vs WT
T2 construct: WT or mutant Gal4DBD- full length REV-ERBα fusion and NCoR1-VP16 fusion protein; expressed in transfected cells; host or cells: HEK293 cells with Gal4UAS luciferase reporter stably integrated
T2 sequence (P20393 whole entry F488A, the tested form may be a part): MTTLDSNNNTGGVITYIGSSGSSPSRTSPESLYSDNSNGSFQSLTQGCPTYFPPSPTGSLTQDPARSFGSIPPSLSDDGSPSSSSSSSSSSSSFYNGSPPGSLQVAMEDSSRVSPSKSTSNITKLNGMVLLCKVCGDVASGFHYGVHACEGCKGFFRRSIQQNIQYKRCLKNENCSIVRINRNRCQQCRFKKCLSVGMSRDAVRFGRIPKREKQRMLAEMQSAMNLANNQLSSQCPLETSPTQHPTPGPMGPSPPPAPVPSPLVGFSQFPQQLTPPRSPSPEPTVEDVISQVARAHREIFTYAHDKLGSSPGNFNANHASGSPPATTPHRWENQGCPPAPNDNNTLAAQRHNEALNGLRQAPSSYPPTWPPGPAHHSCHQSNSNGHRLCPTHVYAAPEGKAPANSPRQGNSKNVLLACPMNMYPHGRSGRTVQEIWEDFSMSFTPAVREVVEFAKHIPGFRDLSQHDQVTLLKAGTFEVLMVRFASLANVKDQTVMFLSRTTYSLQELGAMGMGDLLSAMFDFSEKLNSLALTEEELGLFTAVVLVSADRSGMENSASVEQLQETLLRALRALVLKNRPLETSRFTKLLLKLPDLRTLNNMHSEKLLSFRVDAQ
T2 sequence (O75376 whole entry partner, the tested form may be a part): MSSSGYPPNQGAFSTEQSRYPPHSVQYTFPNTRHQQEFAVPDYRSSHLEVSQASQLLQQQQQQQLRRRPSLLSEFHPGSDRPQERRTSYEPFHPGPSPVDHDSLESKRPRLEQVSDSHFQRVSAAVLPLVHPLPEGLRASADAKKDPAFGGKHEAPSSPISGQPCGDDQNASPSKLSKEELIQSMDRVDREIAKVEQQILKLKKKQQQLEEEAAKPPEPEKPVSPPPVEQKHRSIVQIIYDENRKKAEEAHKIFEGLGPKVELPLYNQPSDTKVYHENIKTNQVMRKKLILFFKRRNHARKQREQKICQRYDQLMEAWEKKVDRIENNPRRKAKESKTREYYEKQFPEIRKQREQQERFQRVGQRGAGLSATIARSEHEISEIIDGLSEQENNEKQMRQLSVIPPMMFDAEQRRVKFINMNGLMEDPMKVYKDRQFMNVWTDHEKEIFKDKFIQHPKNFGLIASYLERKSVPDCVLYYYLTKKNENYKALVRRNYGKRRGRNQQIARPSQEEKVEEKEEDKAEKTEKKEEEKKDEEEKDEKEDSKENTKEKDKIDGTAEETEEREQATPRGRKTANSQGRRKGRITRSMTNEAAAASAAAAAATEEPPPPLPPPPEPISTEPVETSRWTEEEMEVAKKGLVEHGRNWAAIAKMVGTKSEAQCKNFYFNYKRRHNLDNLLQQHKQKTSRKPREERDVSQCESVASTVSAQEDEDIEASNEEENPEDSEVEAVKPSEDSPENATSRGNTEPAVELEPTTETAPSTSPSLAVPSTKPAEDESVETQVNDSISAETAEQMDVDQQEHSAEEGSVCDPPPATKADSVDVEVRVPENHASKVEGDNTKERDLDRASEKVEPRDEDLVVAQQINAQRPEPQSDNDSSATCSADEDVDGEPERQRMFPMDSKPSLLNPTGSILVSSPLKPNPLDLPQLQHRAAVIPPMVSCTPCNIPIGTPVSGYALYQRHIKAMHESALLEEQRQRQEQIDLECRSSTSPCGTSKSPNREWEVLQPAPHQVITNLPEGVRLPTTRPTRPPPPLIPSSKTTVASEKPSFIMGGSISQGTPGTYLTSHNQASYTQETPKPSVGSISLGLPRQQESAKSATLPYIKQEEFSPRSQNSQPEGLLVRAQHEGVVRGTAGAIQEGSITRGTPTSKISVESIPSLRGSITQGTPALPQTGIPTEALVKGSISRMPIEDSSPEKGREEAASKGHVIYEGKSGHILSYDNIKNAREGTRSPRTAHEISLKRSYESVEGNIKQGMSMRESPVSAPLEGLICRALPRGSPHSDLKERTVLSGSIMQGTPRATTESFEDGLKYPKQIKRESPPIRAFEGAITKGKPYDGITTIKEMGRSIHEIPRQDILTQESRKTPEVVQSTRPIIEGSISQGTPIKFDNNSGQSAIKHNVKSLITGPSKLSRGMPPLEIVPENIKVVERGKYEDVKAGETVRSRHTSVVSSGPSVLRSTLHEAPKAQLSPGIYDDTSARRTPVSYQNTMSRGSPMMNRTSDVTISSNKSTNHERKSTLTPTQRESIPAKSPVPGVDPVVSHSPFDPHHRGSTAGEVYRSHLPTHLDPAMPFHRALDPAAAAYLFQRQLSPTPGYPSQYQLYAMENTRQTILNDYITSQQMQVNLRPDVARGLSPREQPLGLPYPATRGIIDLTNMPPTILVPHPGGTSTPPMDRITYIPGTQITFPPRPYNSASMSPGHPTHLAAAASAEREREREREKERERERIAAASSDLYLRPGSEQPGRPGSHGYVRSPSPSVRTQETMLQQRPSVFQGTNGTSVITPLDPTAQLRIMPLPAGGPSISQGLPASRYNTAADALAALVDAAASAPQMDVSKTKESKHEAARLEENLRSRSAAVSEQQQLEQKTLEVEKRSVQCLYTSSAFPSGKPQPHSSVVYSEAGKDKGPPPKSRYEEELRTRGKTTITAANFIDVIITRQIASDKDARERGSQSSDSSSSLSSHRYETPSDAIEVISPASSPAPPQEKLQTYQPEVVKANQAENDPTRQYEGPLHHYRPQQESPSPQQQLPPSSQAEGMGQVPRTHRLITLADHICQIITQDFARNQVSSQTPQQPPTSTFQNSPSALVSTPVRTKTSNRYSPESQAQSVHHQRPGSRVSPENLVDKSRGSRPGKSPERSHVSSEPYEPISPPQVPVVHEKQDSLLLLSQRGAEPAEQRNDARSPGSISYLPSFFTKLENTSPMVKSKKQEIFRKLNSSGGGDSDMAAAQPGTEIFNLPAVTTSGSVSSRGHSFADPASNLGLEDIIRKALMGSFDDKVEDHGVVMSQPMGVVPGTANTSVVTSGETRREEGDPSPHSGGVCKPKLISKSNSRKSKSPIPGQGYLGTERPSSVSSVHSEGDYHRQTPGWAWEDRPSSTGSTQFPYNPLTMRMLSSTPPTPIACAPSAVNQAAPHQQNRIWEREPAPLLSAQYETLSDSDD
Method: The removal of the bulkier Phe488 sidechain may allow for the ligand binding pocket to wrap around the ligand more tightly, which may explain the higher activity of this mutant REV-ERB.
The NCoR-Vp16 plasmid and REV-ERBα/β-FL GAL4-DBD wild-type or point mutation plasmids were incubated with the transfection agent, Lipofectamine 2000. GFP plasmid was also in the transfection mix to confirm transfection efficiency. HEK cells were plated in 10 cm dishes for western blot analysis, and HEK UAS-luc cells were plated in 96 well plates for luciferase assay analysis. Prior to cellular adherence, transfection mix was added. The cells and transfection mix were incubated at 37 °C in a humidified atmosphere of 5% CO2. The transfection incubation lasted overnight for luciferase assays and 48 h for protein isolation/western blot analysis. For luciferase assays, REV-ERB agonists were added in an 11-point serial dilution the day following overnight transfection. Cells were incubated with the compound for 24 h, prior to luciferin addition and luminescence read out.

[1] = mouse liver microsome stability assay; format: in vitro ADME; conditions: liver microsomes
From the text: We thank the reviewers for the constructive comments, and we have responded to each of the […]
Overall, this is a commendable structure-function study on the transcriptional repressor, REV-ERBα. It includes the identification of an agonist that belongs to the non-heme class of small ligands. The study combines cell-based and in vitro, in vivo, and crystallographic analyses of the ligand-receptor molecular complex.
However, as a spring-board for therapeutic drug discovery, there are a few additional issues that may need to be clarified.
1. In the HEK293 2-hybrid assay, the ERB agonists are described as activators of transcription.
Perhaps, they would be more appropriately described as 'repressors'.
We have updated the manuscript to clarify this issue. In the original manuscript, we used the following to describe how the 2-hybrid assay switches agonists from repressors to activators to allow for better resolution of activity, “This format of the assay essentially functions as a mammalian 2-hybrid assay and detects REVERB agonists as activators of transcription effectively enhancing the sensitivity of such an assay from the typical one hybrid system that detects enhancement of transcriptional repression.” […]

Clc1nnc2ccc(Oc3ccccc3-c3ccccc3)nn12 [STL1267]
Ppargca1 relative gene expression (C2C12 cells): 8.425 and 7.081 and 5.71 | lcad relative gene expression (C2C12 cells): 25.4657 and 24.2235 and 14.2579 | lkb1 relative gene expression (C2C12 cells): 4.349 and 3.556 and 2.4615 | mt-Nd1 relative gene expression (C2C12 cells): 3.873 and 3.557 and 4.501 | mt-co1 relative gene expression (C2C12 cells): 7.748 and 5.296 and 5.742 | nampt relative gene expression (C2C12 cells): 4.112 and 2.537 and 1.9657 | scad relative gene expression (C2C12 cells): 25.4657 and 24.2235 and 14.2579 | sirt1 relative gene expression (C2C12 cells): 4.33 and 3.474 and 1.956 | vlcad relative gene expression (C2C12 cells): 14.2905 and 16.1127 and 7.599 | Ki (Alpha2B): > 10 µM | Ki (D1): > 10 µM | Ki (BZP Rat Brain Site): > 10 µM | Ki (M4): > 10 µM | effect of mutation on NCoR recruitment activity (REV-ERBα F488A): impressive improvement in potency and efficacy | half-life [1]: 34 min
